Ten compounds from ChEMBL document CHEMBL1201862, “PubChem BioAssay data set” (2004) can be followed below.

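Where inhibition never reached the appropriate level, the endpoint shown equals the highest concentration tested. Otherwise, values were interpolated linearly from a five-concentration, 48-hour dose response in 96-well plates. GI50 = concentration required for 50% inhibition of growth.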 Calls of active or inactive are those of the source. Cut-off read from the data, not from the text of the source: active = GI50 up to about 1.1 µM and inactive = higher.

Some test systems named below: 786-0; A498; ACHN; CCRF-CEM; HCC 2998; HOP-62; LOX IMVI; MDA-MB-231; MDA-N; NCI-H460; NCI-H522; PC-3; RXF 393; SF-268; SK-MEL-28; SNB-19; SNB-75; SR; EKVX; HL-60.
Holding throughout (assay): NCI-60 cell line screen, 48 h

Take `O=c1c2sc3nc(NCCN4CCCCC4)ncc3c2ncn1-c1ccccc1`: the GI50 was 80.7 µM (inactive) in the test with 786-0; > 100 µM (inactive) with A498; 42 µM (inactive) with ACHN; 44.7 µM (inactive) with CCRF-CEM; > 100 µM (inactive) in the test on HCC 2998; 42.1 µM (inactive) in the test with HOP-62. Also, the GI50 was 17.3 µM (inactive) in the test on LOX IMVI; > 100 µM (inactive) in the test with MDA-MB-231; 80.5 µM (inactive) with MDA-N; 55.6 µM (inactive) in the test on NCI-H460; 41 µM (inactive) in the test on NCI-H522; 59.3 µM (inactive) in the test on PC-3. Also, the GI50 in the test on RXF 393 was 20.6 µM (inactive); with SF-268 it was 60 µM (inactive); with SK-MEL-28 it was 55.2 µM (inactive); in the test with SNB-19, 67.9 µM (inactive); in the test on SNB-75, 45.3 µM (inactive); in the test on SR it was > 100 µM (inactive).
Regarding `Cc1cc2c(s1)C(=O)c1sccc1C2=O`, the GI50 in the test on 786-0 was 1.83 µM (inactive); in the test on A498, 1.78 µM (inactive); in the test on ACHN, 1.05 µM (active); with EKVX it was 1.84 µM (inactive); in the test with HCC 2998, 1.75 µM (inactive); in the test on HL-60, 3.34 µM (inactive). Also, the GI50 with LOX IMVI is 0.152 µM (active); with MDA-MB-231, 1.07 µM (active); in the test on MDA-N, 0.171 µM (active); with NCI-H460 it was 1.72 µM (inactive); in the test with NCI-H522 it was 0.552 µM (active); with PC-3 it was 0.942 µM (active). Moreover, the GI50 in the test with RXF 393 was 1.17 µM (inactive); with SF-268, 0.762 µM (active); in the test with SK-MEL-28, 0.2 µM (active); with SNB-19, 1.66 µM (inactive); with SNB-75 it was 0.397 µM (active); in the test with SR it was 3.01 µM (inactive).
Turning to `Nc1nc(O)c2nc3c(nc2n1)C(=O)N(c1ccc(C(=O)O)cc1)C3`, the GI50 with 786-0 is > 100 µM (inactive); with A498, > 100 µM (inactive); with ACHN, > 100 µM (inactive); in the test with EKVX, > 100 µM (inactive); in the test with HCC 2998, > 100 µM (inactive); with HOP-62 it was 29.4 µM (inactive). For the same compound, the GI50 with LOX IMVI, with MDA-MB-231, in the test with MDA-N, in the test with NCI-H460, in the test on NCI-H522 and in the test with PC-3 was > 100 µM (inactive) in each case. In addition, the GI50 in the test on RXF 393, in the test with SF-268, in the test on SK-MEL-28, in the test with SNB-19, in the test with SNB-75 and in the test with SR was > 100 µM (inactive) throughout.
Consider `CC(C)(CN1CCCCC1)C(=O)CC(SCCS(=O)(=O)O)c1ccccc1` (centres undefined), for which the GI50 is 11 µM (inactive) with 786-0; 14.9 µM (inactive) in the test on A498; 16.9 µM (inactive) in the test on ACHN; 5.16 µM (inactive) in the test with CCRF-CEM; 14.1 µM (inactive) with EKVX; 23.3 µM (inactive) in the test with HCC 2998. The GI50 was 30.8 µM (inactive) in the test on HOP-62; 13.7 µM (inactive) with MDA-MB-231; 16.3 µM (inactive) in the test on MDA-N; 11.9 µM (inactive) with NCI-H460; 3.11 µM (inactive) with NCI-H522; 22.9 µM (inactive) in the test with PC-3. Also, the GI50 is 10.8 µM (inactive) with RXF 393; 10 µM (inactive) in the test with SF-268; 17.5 µM (inactive) with SNB-19; 20.4 µM (inactive) with SNB-75; 0.466 µM (active) in the test with SR.
For the compound `CCCCc1ccc(Nc2nc(Cl)c3c(ncn3C3CC(Oc4ccc(C)cc4)C(COc4ccc(C)cc4)O3)n2)cc1` (centres undefined), the GI50 in the test on 786-0, with A498, with ACHN, in the test with CCRF-CEM, in the test on EKVX and in the test on HCC 2998 was > 100 µM (inactive) in each case. For the same compound, the GI50 in the test on HL-60 was 87.7 µM (inactive); in the test on HOP-62, > 100 µM (inactive); in the test with LOX IMVI it was > 100 µM (inactive); with MDA-MB-231 it was > 100 µM (inactive); with MDA-N it was > 100 µM (inactive); in the test with NCI-H460, > 100 µM (inactive). Also, the GI50 is > 100 µM (inactive) in the test on NCI-H522; > 100 µM (inactive) with PC-3; > 100 µM (inactive) with RXF 393; > 100 µM (inactive) with SF-268; > 100 µM (inactive) in the test on SNB-19; 22.8 µM (inactive) in the test with SNB-75. Besides, in the test with SR, the GI50 was > 100 µM (inactive).
As to `CCOP(=O)(OCC)C(C(=O)OC)C(=O)C(=O)Nc1cccc(O)c1` (centres undefined), the GI50 in the test on 786-0, in the test on A498, with ACHN, in the test on CCRF-CEM, in the test on EKVX and with HCC 2998 was > 100 µM (inactive) throughout. Besides, the GI50 with HOP-62, in the test on LOX IMVI, in the test with MDA-MB-231, in the test with MDA-N, in the test with NCI-H460 and in the test on NCI-H522 was > 100 µM (inactive) in each case. Besides, the GI50 with PC-3, in the test on RXF 393, in the test with SF-268, in the test on SK-MEL-28, in the test with SNB-19 and in the test on SNB-75 was > 100 µM (inactive) in each case. Moreover, in the test on SR, the GI50 is > 100 µM (inactive).
In the case of `CC1OC(OC2C(O)COC(OC3C(C)OC(OC4C(OC(=O)[C@]56CCC(C)(C)C[C@@H]5C5=CCC7[C@@]8(C)C[C@H](O)[C@H](OC9OC(CO)C(O)C(O)C9O)[C@@](C)(CO)[C@@H]8CC[C@@]7(C)[C@]5(C)CC6)OCC(O)C4O)C(O)C3OC3OCC(O)C(O)C3O)C2O)C(O)C(O)C1O` (some centres undefined), the GI50 is 15.5 µM (inactive) in the test with 786-0; 14.3 µM (inactive) in the test on A498; 17.8 µM (inactive) with ACHN; 15.6 µM (inactive) with CCRF-CEM; 10.7 µM (inactive) with EKVX; 16.6 µM (inactive) in the test on HCC 2998. Moreover, the GI50 in the test with HOP-62 is 17.8 µM (inactive); with LOX IMVI it was 18.9 µM (inactive); in the test on MDA-MB-231, 14.7 µM (inactive); in the test on MDA-N, 18.8 µM (inactive); in the test with NCI-H460 it was 20.1 µM (inactive); in the test on NCI-H522 it was 44.9 µM (inactive). Besides, the GI50 is 14 µM (inactive) with PC-3; 15.9 µM (inactive) in the test on RXF 393; 29.2 µM (inactive) in the test with SF-268; 11.2 µM (inactive) in the test on SK-MEL-28; 19.1 µM (inactive) in the test on SNB-19; 22.6 µM (inactive) in the test on SNB-75. Also, the GI50 in the test with SR is 17.9 µM (inactive).
For `Cc1[nH]n(-c2ncc(C#N)c(=O)[nH]2)c(=O)c1CCO`, the GI50 in the test with 786-0, with A498, in the test with ACHN, in the test with CCRF-CEM, in the test with EKVX and with HCC 2998 was > 100 µM (inactive) throughout. Further, the GI50 in the test on HOP-62, with LOX IMVI, with MDA-MB-231, with MDA-N, with NCI-H460 and with NCI-H522 was > 100 µM (inactive) throughout. In addition, the GI50 with PC-3 is > 100 µM (inactive); in the test with RXF 393, > 100 µM (inactive); in the test with SF-268, > 100 µM (inactive); in the test with SK-MEL-28, > 100 µM (inactive); in the test with SNB-19, > 100 µM (inactive); in the test on SNB-75, 16.4 µM (inactive). Besides, in the test on SR, the GI50 is > 100 µM (inactive).
For `COc1cc2ccc1OCc1cccc(n1)COc1ccc(cc1OC)/C=N\CCNCC/N=C\2`, the GI50 in the test with 786-0, in the test on A498, with ACHN, with EKVX, in the test with HCC 2998 and in the test on HL-60 was > 100 µM (inactive) in each case. The GI50 in the test on HOP-62 was > 100 µM (inactive); with LOX IMVI, > 100 µM (inactive); in the test on MDA-MB-231, 35.2 µM (inactive); in the test on MDA-N, > 100 µM (inactive); in the test on NCI-H460, > 100 µM (inactive); with NCI-H522 it was 34.4 µM (inactive). Moreover, the GI50 is > 100 µM (inactive) with PC-3; > 100 µM (inactive) in the test with RXF 393; 80.9 µM (inactive) with SF-268; > 100 µM (inactive) with SK-MEL-28; > 100 µM (inactive) in the test on SNB-19; 30.5 µM (inactive) with SNB-75. Besides, the GI50 with SR was > 100 µM (inactive).
`CCC(=O)Oc1ccc2c(c1)c(=O)c1c(NCCCN(C)C)ccc3nnn2c31`: the GI50 was 0.361 µM (active) in the test on 786-0; 2.77 µM (inactive) in the test with A498; 0.385 µM (active) in the test with ACHN; 0.127 µM (active) in the test with CCRF-CEM; 1.17 µM (inactive) in the test on EKVX; 1.25 µM (inactive) in the test with HCC 2998. Besides, the GI50 was 1.53 µM (inactive) with HOP-62; 1.03 µM (active) in the test with LOX IMVI; 3.44 µM (inactive) in the test with MDA-MB-231; 3.86 µM (inactive) in the test with MDA-N; 0.0348 µM (active) with NCI-H460; 0.188 µM (active) in the test on NCI-H522. For the same compound, the GI50 was 2.48 µM (inactive) in the test on PC-3; 1.83 µM (inactive) in the test with RXF 393; 1.8 µM (inactive) in the test on SF-268; 10.9 µM (inactive) in the test on SK-MEL-28; 2.06 µM (inactive) with SNB-19; 0.201 µM (active) in the test on SR.
